Test results published in patent publication US10004732B2 (Novartis AG, priority 2014, dated 2018).
pIC50: −log10 of the molar value. Like-named read-outs stand apart in the source and are kept apart here.

Assays:
PI 3-kinase delta [1] = target: T1, PI 3-kinase delta (Homo sapiens, UniProt O00329); assay: Cellular assay J1, p-Akt (S473) in Rat-1 cells, Surefire format; assay type: cell-based; conditions: non-asterisked data: version J1 (Surefire format), Rat-1 cells; read-out: Assay J PI3Kδ IC50
From the text: (§1) Cellular Assays for PI 3-Kinase Alpha (H1), Beta (I1) and Delta (J1): Surefire Format
(§2) AlphaScreen (Amplified Luminescent Proximity Homogeneous Assay, ALPHA, Perkin Elmer) is a non-radioactive bead-based proximity assay technology to study biomolecular interactions in a homogenous microtiter plate format. The brand name SureFire denotes AlphaScreen assays that are adapted to quantify the phosphorylation of endogenous cellular proteins in cell lysates, by using matched antibody pairs, which consist of an anti-phospho-kinase and an anti-kinase antibody. The assay allows characterization of kinase signaling in cells as well as measurement of kinase inhibitor effects.
(§3) Using Rat-1 cells stably expressing myr-HA-tagged versions of the human PI3Kdelta, PI3Kalpha, or PI3Kbeta p110 catalytic subunit isoforms, the assay was developed as a two-plate protocol in a 384-well format.
(§4) For compound testing, the cells were seeded at a density of 4000 (Rat-1_PI3Kdelta), 7500 (Rat-1_PI3Kalpha), or 6200 (Rat-1_PI3Kbeta) cells in 20 μl complete growth medium into cell culture treated 384-well plates and were grown at 37° C./5% CO2/90% humidity for 24 h. Shortly before compound transfer, the complete medium was removed, 30 μl assay buffer (DMEM high glucose, 1×MEM NEAA, 10 mM HEPES, 2 mM L-glutamine, 0.1% (w/v) BSA) was added and 10 μl of the compound predilutions were transferred to the cells.

PI 3-kinase alpha [2] = target: T2, PI 3-kinase alpha (Homo sapiens, UniProt P42336); assay: Kinase Glo Luminescent Kinase Assay (Kglo), assay A; assay type: biochemical; conditions: read-out: Assay A PI3Kα IC50
Target sequence in this assay (P42336 whole entry): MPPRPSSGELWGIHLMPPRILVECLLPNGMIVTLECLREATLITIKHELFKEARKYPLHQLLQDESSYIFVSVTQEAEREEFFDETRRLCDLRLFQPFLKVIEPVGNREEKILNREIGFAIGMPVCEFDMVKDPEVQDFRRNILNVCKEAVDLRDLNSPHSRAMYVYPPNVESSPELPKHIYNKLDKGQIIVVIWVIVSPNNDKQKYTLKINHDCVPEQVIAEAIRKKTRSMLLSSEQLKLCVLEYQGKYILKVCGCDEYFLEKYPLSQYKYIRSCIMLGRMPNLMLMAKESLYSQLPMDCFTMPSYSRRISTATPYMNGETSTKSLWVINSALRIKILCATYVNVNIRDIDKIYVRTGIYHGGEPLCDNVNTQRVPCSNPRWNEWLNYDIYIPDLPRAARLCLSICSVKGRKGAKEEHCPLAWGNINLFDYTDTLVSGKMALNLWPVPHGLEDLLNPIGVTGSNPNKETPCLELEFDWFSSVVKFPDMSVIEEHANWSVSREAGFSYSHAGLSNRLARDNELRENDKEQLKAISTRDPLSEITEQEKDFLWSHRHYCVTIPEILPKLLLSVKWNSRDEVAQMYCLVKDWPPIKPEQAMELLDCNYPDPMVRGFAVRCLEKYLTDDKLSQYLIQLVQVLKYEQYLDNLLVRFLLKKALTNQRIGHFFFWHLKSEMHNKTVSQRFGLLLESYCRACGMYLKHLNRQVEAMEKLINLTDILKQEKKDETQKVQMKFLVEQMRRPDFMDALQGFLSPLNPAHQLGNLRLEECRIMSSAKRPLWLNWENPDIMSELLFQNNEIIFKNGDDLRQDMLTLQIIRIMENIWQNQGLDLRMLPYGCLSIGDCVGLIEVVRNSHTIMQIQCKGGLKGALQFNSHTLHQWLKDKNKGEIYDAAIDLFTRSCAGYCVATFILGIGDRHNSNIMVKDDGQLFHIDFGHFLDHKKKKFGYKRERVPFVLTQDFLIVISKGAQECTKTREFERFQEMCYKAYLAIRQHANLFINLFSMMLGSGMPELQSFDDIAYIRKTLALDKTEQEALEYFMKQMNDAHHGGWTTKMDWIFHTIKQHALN

PI 4-kinase beta = PI 4-kinase beta (Homo sapiens, UniProt Q9UBF8); assay: Kinase Glo Luminescent Kinase Assay (Kglo), assay D; assay type: biochemical; conditions: read-out: Assay D PI4Kβ IC50
Chain of PI 4-kinase beta (Q9UBF8 whole entry): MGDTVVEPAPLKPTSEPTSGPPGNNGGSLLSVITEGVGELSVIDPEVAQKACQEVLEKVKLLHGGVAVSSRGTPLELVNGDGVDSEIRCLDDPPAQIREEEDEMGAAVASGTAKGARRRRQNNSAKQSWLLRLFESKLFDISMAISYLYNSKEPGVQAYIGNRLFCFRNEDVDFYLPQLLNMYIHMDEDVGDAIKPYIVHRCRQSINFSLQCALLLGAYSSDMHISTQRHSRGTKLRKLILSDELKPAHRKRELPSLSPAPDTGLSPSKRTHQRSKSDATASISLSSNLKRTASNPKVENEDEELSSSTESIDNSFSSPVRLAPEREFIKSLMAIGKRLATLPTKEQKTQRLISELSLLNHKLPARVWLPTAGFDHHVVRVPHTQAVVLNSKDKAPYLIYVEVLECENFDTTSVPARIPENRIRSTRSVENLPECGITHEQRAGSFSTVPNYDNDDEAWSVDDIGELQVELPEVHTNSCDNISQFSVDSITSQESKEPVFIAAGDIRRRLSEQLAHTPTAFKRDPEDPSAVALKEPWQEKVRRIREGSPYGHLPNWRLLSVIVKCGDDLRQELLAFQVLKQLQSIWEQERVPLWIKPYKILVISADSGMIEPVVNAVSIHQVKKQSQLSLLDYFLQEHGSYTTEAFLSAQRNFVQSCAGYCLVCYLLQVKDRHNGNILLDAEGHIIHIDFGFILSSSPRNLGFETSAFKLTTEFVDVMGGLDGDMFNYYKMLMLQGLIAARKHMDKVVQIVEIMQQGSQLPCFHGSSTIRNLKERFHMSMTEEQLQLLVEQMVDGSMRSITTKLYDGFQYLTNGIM

[3] = test system: IL-8-induced neutrophil shape change in human whole blood; assay: Whole blood neutrophil shape change assay (L); assay type: cell-based; conditions: IL-8, human whole blood, read-out: Assay L WBSC IC50
Method: Whole Blood Neutrophil Shape Change Assay (L)
IL-8 was made up to 2 μM stocks in 0.1% bovine serum albumin/PBS and stored at −80° C. On the day IL-8 was diluted in PBS (phosphate buffered saline) 10 minutes before use. IL-8 was used at final concentration of 2 nM and a concentration range from 0.003 to 200 nM for the donor dose response curve.
Assay fixative solution was prepared fresh each day from 10× concentrated CellFIX™ solution diluted 1:10 in sterile distilled water and then 1:4 with PBS. Assay fixative solution was kept on ice prior to use.
A 10× lysis buffer was prepared in advance by dissolving 20.75 g NH4Cl and 2.5 g KHCO3 in 250 ml sterile H2O. This 10× lysis buffer was filtered under sterile conditions and stored for up to two weeks at 4° C. On the day a 1× lysis solution was prepared with sterile distilled H2O and kept on ice prior to use.
The test compounds were prepared as 10 mM stock solutions in 100% DMSO and were stored at 4° C. Once in use for an assay 10 mM stock compounds were thawed and stored at RT protected from light. Compound dilutions were prepared fresh on the day. The first series of dilutions in 100% DMSO were done first thing in the morning. Only once blood had been collected and arrived in laboratory was the next set of dilutions into PBS carried out (1:10 PBS, 10% DMSO). This limited the exposure of diluted compound to plastic and made sure the exposure timing was consistent between assays.
Compound dilutions in 100% DMSO were prepared as described previously. Human whole blood was collected in K2 EDTA Vacutainers. Once blood was in the laboratory, compound dilutions into PBS were carried out as described previously and depicted in Table 1.
The outer wells of the deep well assay plate were filled with 1200 μl of sterile distilled H2O in an effort to limit edge effects (rows A1-H1, A1-A12, A12-H12).
An IL-8 dose response was determined for each blood donor examined, to monitor the donor response to IL-8. At this step in assay preparation for the IL-8 dose response samples 10 μl of PBS was added to designated wells. In addition the assay window without DMSO was also assessed each day. For such samples at this step in assay preparation 10 μl of PBS was added in the place of 10% DMSO.
Lids were placed on the 96 well plates and samples were incubated for 15 minutes at 37° C. in a water-bath.
Following the compound pre-incubation 10× final IL-8 was added to appropriate wells (10 μl of 20 nM working stock IL-8, final IL-8 concentration in blood=2 nM) and 10 μl of PBS was added to the un-stimulated controls. 10× final dose response range IL-8 was also added to designated wells (final concentration range on assay plate was 200 nM to 0.0005 nM, 1:5 serial dilution in PBS). The IL-8 and PBS were added to appropriate wells across all assay plates in the same sequence as the blood to compound addition. […] Samples were incubated for 5 minutes at 37° C. in a water-bath. Following the incubation sample plates were transferred to ice where 250 μl of chilled Assay Fixative Buffer was added promptly to all wells.
Samples were incubated on ice for 7 minutes (no mixing). […] Once added samples were mixed once and incubated on ice for 30 minutes to achieve uniform red blood cells lysis. After lysis, 200 μl of sample was transferred to a 96 well microplate on ice. […] Granulocytes were identified based on differential side scatter (SSC) and forward scatter (FSC) characteristics.

Vps34 = Vps34 (Homo sapiens, UniProt Q8NEB9); assay: Kinase Glo Luminescent Kinase Assay (Kglo), assay C; assay type: biochemical; conditions: read-out: Assay C VPS34 IC50
mTOR = mTOR (Homo sapiens, UniProt P42345); assay: Lanthascreen kinase binding assay, assay G; conditions: read-out: Assay G mTOR IC50
Method: Lanthascreen™ Kinase Binding Assay for mTOR (G)
Binding of an inhibitor to the kinase competes for binding with the tracer, resulting in a loss of FRET.
50 nL of compound dilutions were dispensed onto white 384-well small volume polystyrene plate.

[4] = Microsomal clearance assay (M); conditions: intrinsic clearance in rat liver microsomes
Method: The experiments were performed in 96-well glass plates at 37° C. on an automated Tecan EVO platform. Test compounds at a concentration of 10 mM in pure DMSO were diluted 1:1000 in water to 10 μM. […] Reactions were initiated by the addition of 150 μL of a cofactor solution containing 2 mM NADPH.

PI 3-kinase gamma = PI 3-kinase gamma (Homo sapiens, UniProt P48736); assay: TR-FRET Adapta assay, assay E; assay type: biochemical; conditions: read-out: Assay E PI3Kγ IC50
Chain of PI 3-kinase gamma (P48736 whole entry): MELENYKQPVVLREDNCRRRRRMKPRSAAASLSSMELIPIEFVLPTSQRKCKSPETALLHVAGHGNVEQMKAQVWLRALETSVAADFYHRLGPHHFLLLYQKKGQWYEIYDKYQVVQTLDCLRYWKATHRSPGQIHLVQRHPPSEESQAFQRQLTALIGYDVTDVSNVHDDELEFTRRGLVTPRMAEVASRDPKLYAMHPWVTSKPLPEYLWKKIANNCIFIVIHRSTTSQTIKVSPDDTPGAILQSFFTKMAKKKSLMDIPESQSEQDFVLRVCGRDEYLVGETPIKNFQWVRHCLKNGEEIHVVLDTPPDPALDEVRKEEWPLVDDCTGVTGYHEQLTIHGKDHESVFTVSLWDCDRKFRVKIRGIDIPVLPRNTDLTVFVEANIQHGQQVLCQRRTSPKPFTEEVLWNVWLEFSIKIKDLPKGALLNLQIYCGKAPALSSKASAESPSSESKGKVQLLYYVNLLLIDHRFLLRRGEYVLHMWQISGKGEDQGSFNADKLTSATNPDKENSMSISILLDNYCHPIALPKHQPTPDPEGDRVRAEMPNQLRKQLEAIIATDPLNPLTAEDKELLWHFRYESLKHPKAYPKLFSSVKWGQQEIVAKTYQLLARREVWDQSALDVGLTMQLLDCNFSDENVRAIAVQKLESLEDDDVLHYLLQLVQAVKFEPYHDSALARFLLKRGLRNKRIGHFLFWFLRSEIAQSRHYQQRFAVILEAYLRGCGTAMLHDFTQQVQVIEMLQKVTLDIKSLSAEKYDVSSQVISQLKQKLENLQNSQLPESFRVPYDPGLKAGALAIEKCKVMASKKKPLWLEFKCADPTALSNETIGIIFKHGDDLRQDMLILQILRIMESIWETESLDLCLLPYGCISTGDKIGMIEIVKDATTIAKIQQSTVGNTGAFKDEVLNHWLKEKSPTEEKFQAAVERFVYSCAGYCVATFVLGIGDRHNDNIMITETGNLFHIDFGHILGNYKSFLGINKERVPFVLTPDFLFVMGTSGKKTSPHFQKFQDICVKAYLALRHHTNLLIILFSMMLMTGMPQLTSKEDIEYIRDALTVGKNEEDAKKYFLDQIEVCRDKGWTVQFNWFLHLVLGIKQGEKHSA

PI 3-kinase delta [5] = target: T1, PI 3-kinase delta; assay: TR-FRET Adapta assay, assay F; conditions: read-out: Assay F PI3Kδ IC50
PI 3-kinase alpha [6] = target: T2, PI 3-kinase alpha; assay: Cellular assay H1, p-Akt (S473) in Rat-1 cells, Surefire format; assay type: cell-based; conditions: non-asterisked data: version H1 (Surefire format), Rat-1 cells; read-out: Assay H PI3Kα IC50
Target sequence in this assay (P42336 whole entry): as the sequence (P42336 whole entry) above
Target sequence in this assay (Q63787 whole entry partner): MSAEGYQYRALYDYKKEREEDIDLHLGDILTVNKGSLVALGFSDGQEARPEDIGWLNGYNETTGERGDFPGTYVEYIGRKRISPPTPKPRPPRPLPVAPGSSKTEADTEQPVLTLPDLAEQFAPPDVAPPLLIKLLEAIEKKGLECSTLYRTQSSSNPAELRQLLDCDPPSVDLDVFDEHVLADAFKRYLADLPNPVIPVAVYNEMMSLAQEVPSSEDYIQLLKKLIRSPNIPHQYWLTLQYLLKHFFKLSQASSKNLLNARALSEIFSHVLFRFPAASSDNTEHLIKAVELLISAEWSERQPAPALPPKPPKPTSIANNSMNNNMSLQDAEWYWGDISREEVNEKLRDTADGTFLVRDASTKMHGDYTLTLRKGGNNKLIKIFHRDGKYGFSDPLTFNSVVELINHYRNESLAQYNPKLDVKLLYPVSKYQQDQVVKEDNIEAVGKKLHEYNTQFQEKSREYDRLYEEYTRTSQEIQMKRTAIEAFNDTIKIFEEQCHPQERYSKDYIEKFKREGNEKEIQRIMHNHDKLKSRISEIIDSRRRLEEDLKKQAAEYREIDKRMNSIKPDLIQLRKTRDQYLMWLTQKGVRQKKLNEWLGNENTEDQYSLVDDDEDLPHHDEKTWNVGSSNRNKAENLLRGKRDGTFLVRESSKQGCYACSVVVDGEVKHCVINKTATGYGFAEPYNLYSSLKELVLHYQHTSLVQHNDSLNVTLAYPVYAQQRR

PI 3-kinase beta [7] = target: T3, PI 3-kinase beta (Homo sapiens, UniProt P42338); assay: Kinase Glo Luminescent Kinase Assay (Kglo), assay B; assay type: biochemical; conditions: read-out: Assay B PI3Kβ IC50
Target sequence in this assay (P42338 whole entry): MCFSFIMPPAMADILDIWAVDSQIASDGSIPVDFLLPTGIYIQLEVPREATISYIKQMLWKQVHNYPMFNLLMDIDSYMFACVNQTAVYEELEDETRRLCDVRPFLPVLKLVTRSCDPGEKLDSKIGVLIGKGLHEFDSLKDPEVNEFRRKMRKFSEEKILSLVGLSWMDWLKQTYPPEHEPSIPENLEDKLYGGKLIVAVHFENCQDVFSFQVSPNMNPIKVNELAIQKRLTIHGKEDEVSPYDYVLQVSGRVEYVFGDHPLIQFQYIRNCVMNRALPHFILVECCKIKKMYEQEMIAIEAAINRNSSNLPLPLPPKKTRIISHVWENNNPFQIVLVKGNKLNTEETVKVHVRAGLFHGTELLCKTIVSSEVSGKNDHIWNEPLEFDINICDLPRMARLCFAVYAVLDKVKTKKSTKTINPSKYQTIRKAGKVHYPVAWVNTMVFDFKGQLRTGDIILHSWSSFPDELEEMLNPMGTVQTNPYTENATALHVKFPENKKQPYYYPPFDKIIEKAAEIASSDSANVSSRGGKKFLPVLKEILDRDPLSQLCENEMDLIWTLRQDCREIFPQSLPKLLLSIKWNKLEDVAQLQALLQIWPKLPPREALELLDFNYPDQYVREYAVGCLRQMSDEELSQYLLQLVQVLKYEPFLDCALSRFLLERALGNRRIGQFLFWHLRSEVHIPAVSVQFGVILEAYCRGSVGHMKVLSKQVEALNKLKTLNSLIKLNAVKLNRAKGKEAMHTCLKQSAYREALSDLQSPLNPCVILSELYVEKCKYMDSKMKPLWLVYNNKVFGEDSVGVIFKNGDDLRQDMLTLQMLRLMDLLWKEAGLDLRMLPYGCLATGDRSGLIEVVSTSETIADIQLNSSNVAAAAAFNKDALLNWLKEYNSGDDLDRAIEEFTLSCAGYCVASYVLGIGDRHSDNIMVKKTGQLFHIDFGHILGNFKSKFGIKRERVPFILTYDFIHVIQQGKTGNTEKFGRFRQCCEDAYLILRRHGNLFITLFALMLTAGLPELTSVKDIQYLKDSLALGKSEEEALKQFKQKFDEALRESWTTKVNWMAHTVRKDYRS
Target sequence in this assay (P27986 461-568 partner): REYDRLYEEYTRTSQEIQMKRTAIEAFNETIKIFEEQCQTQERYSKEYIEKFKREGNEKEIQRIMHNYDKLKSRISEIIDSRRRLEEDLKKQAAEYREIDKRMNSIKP

PI 3-kinase beta [8] = target: T3, PI 3-kinase beta; assay: Cellular assay I1, p-Akt (S473) in Rat-1 cells, Surefire format; assay type: cell-based; conditions: non-asterisked data: version I1 (Surefire format), Rat-1 cells; read-out: Assay I PI3Kβ IC50
Target sequence in this assay (P42338 whole entry): as the sequence (P42338 whole entry) above
Target sequence in this assay (Q63787 whole entry partner): as the sequence (Q63787 whole entry partner) above
From the text: as §1, §2, §3, §4

| Compound | pIC50 (PI 3-kinase delta [1]) | pIC50 (PI 3-kinase alpha [2]) | pIC50 (PI 4-kinase beta) | pIC50 ([3]; Homo sapiens, Neutrophil) | pIC50 (Vps34) | pIC50 (mTOR) | Assay M RLM CI(int) [4] [µL/min/mg] | pIC50 (PI 3-kinase gamma) | pIC50 (PI 3-kinase delta [5]) | pIC50 (PI 3-kinase alpha [6]) | pIC50 (PI 3-kinase beta [7]) | pIC50 (PI 3-kinase beta [8]) | pIC50 [3] |
| --- | --- | --- | --- | --- | --- | --- | --- | --- | --- | --- | --- | --- | --- |
| CCn1ncc(-c2nc(-c3cc(S(=O)(=O)NCC(C)(C)O)ccc3C)cnc2N)n1 [Example 82, 3-(5-Amino-6-(2-ethyl-2H-1,2,3-triazol-4-yl)pyrazin-2-yl)-N-(2-hydroxy-2-methylpropyl)-4-methylbenzenesulfonamide] | 6.21 | 6.74 | < 5.00 | 6.08 | < 5.00 | < 5.00 | 25 | 7.39 | 6.27 | 6.07 | 5.26 | 5.53 |  |
| Cc1ccc(S(=O)(=O)NCC2(C(N)=O)CC2)cc1-c1cnc(N)c(-n2cncn2)n1 [Example 127.56] | 5.22 | 6.38 | < 5.00 | 6.15 | < 5.00 | 5.13 | 25 | 7.14 | 5.85 | 5.02 | 5.92 | 5.45 |  |
| Cc1ccc(S(=O)(=O)N[C@H]2CC[C@H](O)CC2)cc1-c1cnc(N)c(-c2cncnc2)n1 [Example 59, Trans-3-(5-Amino-6-(pyrimidin-5-yl)pyrazin-2-yl)-N-(-4-hydroxycyclohexyl)-4-methylbenzenesulfonamide] | 5.19 | 6.04 | < 5.04 | 6.10 | < 5.04 | 5.22 |  | 6.98 | 6.39 | 5.07 | 5.28 |  |  |
| Cc1ccc(S(=O)(=O)NC[C@H]2C[C@@H](O)C2)cc1-c1cnc(N)c(-c2nc(C3CC3)no2)n1 [Example 94, 3-(5-Amino-6-(3-cyclopropyl-1,2,4-oxadiazol-5-yl)pyrazin-2-yl)-N-(((1s,3s)-3-hydroxycyclobutyl)methyl)-4-methylbenzenesulfonamide] | 5.68 | 5.77 | < 5.04 | 5.42 | < 5.04 | 5.05 |  | 7.85 | 6.24 | 5.53 | < 5.04 | 5.05 |  |
| Cc1ccc(S(=O)(=O)NC2CC3(CC(O)C3)C2)cc1-c1cnc(N)c(-c2cn(C)nc2C)n1 (single isomer, unassigned) [Example 9b, (R)-3-[5-Amino-6-(1,3-dimethyl-1H-pyrazol-4-yl)-pyrazin-2-yl]-N-(6-hydroxy-spiro[3.3]hept-2-yl)-4-methyl-benzenesulfonamide or (S)-3-[5-Amino-6-(1,3-dimethyl-1H-pyrazol-4-yl)-pyrazin-2-yl]-N-(6-hydroxy-spiro[3.3]hept-2-yl)-4-methyl-benzenesulfonamide] | 5.12 |  |  |  | < 5.00 | < 5.00 | 27 | 7.92 | 6.62 |  | 5.92 | < 5.00 | 6.47 |
| Cc1ccc(S(=O)(=O)NCC(C)(C)O)cc1-c1cnc(N)c(-n2cnc(C3CC3)n2)n1 [Example 109, 3-(5-Amino-6-(3-cyclopropyl-1H-1,2,4-triazol-1-yl)pyrazin-2-yl)-N-(2-hydroxy-2-methylpropyl)-4-methyl benzenesulfonamide] | 5.72 | 6.36 | 5.07 | 6.03 | < 5.00 |  | <3.4 | 7.55 | 6.16 | 5.58 | 5.52 | < 5.00 |  |
| Cc1ccc(S(=O)(=O)NCCC(C)(C)O)cc1-c1cnc(N)c(-c2nc(C3CC3)no2)n1 [Example 143, 3-(5-Amino-6-(3-cyclopropyl-1,2,4-oxadiazol-5-yl)pyrazin-2-yl)-N-(3-hydroxy-3-methylbutyl)-4-methylbenzenesulfonamide] | 6.00 |  | < 5.04 | 5.77 | < 5.04 | 5.66 | 134 |  |  | 5.63 |  | 5.22 |  |
